Assay results published in patent US20230173764A1, “SURGICAL SYSTEM AND METHODS OF USE” (priority 2021, published 2023).

Experiments:
myofibroblast formation = conditions: Ajmal et al. (2003); cited from earlier work
[1] = given preoperatively; cited from earlier work
fibrinolysis = assay: concentrations effective against fibrinolysis; conditions: one tenth of the doses used in the non-GLP acute porcine study
Text: However, in some embodiments, however, higher doses of tranexamic acid are used for topical applications to account for tranexamic acid being widely distributed throughout the extracellular and intracellular compartments when given preoperatively.

SMILES	myofibroblast formation (myofibroblast formation)	time to reach plasma concentrations [1]	effective in reversing fibrinolysis (fibrinolysis)
O=S(=O)([O-])CCS.[Na+] [MESNA, sodium 2-mercaptoethane sulfonate]	diminish myofibroblast formation	–	–
NC[C@H]1CC[C@H](C(=O)O)CC1 [tranexamic acid]	–	5 to 15 min	effective
